The results in this text go back to patent US8912184B1, “Therapeutic and diagnostic methods” (Alzheimer's Institute of America, Inc., priority 2010, dated 2014).

Read-outs that look alike come from different tables or passages of the source.

In this assay the test system is HCT116 cells. Briefly: Nicotinic Acid Rescue Cytotoxicity Assay, first method: cytotoxicity to HCT116 cells in presence and absence of 10 μM nicotinic acid. In kind it is cell-based. As to conditions: Homo sapiens, HCT-116, 72 h. On the procedure: Additionally, Nicotinic Acid (NA) rescue of cytotoxicity of Nampt inhibitors was assessed by two distinct methods. In the first method, Nampt1 inhibitor cytotoxicity was evaluated in the presence and absence of exogenous nicotinic acid (NA) at a fixed concentration. […] Twenty four hours after cells were plated, the media was removed and replaced with media containing 10 μM nicotinic acid. Compounds were then immediately added. Cell viability was then assessed at 72 h.
Using the first of the two assays described above, the 90 compounds shown in Table 5, below, were tested for cytotoxicity towards Naprt1-proficient HCT116 cells, and for the ability of NA to block the observed cytotoxicity (or “rescue” the cells from the cytotoxic activity of the tested compound). The compounds listed are referred to by a unique rescue analysis example number (i.e., R1, R2 . . . R90) that is used as a reference number in Table 4, in which the results of the cytotoxicity and rescue assays are presented.

The mark [1] stands for this setting: absence of nicotinic acid, read-out: HCT116 72 h cytotoxicity.
Where [2] appears, read: presence of 10 μM nicotinic acid, read-out: HCT116 72 h cytotoxicity with 10 μM Nicotinic Acid.

Take `N#C/N=C(/NCCCCCCOc1ccc(Cl)cc1)NCc1cccnc1` [Example R40, 1-[6-(4-Chlorophenoxy)hexyl]-2-cyano-3-(pyridin-3-ylmethyl)guanidine]: the IC50 under setting [1] is 1090 nM and the IC50 under setting [2] was more than 10000 nM.
On the same counts, the results for `C#CCN(Cc1cc2c(=O)n(C)c(CN3CCN(CCN)CC3)nc2cc1Cl)c1ccc(C(=O)NCc2cccnc2)cc1` [Example R2, 4-{[(2-{[4-(2-Aminoethyl)piperazin-1-yl]methyl}-7-chloro-3-methyl-4-oxo-3,4-dihydroquinazolin-6-yl)methyl](prop-2-yn-1-yl)amino}-N-(pyridin-3-ylmethyl)benzamide] are 18.3 nM and more than 50000 nM.
Take `Cc1ccccc1NCC(=O)Nc1ccc(C(=O)NCc2cccnc2)cc1` [Example R20, 4-{[N-(2-Methylphenyl)glycyl]amino}-N-(pyridin-3-ylmethyl)benzamide]: the IC50 was 106 nM under setting [1] and more than 50000 nM under setting [2].
For the compound `CC(C)c1ccccc1NCC(=O)Nc1ccc(C(=O)NCc2cccnc2)cc1` [Example R22], the IC50 was 302 nM under setting [1] and more than 50000 nM under setting [2].
`Cc1cc(S(=O)(=O)Nc2ccc(NC(=O)NCc3cccnc3)cc2)c(Cl)cc1Cl` [Example R76, 2,4-dichloro-5-methyl-N-(4-{[(pyridin-3-ylmethyl)carbamoyl]amino}phenyl)benzene-sulfonamide]: the IC50 is, setting by setting: under setting [1], 1.3 nM; under setting [2], more than 5000 nM.
Taken in the same sequence, the figures for `CC(C)=CCN(Cc1cc2c(=O)n(C)cnc2cc1Cl)c1ccc(C(=O)NCc2cccnc2)cc1` [Example R52, 4-{[(7-Chloro-3-methyl-4-oxo-3,4-dihydroquinazolin-6-yl)methyl](3-methylbut-2-en-1-yl)amino}-N-(pyridin-3-ylmethyl)benzamide] were 7.3 nM and more than 10000 nM.
In the case of `O=C(NCc1cccnc1)c1ccc(NCc2ccccc2-c2cccc(Cl)c2)cc1` [Example R30, 4-{[(3′-Chlorobiphenyl-2-yl)methyl]amino}-N-(pyridin-3-ylmethyl)benzamide], the IC50 under setting [1] came to 1350 nM and the IC50 under setting [2] is 29000 nM.
As for `N#C/N=C(/NCc1ccc(COc2ccccc2-c2ccccc2)cc1)Nc1ccncc1` [Example R70, 1-{4-[(biphenyl-2-yloxy)methyl]benzyl}-2-cyano-3-pyridin-4-ylguanidine], the IC50 was 1.1 nM under setting [1] and more than 5000 nM under setting [2].
Regarding `CC(C)=CCN(Cc1ccccc1Cl)c1ccc(C(=O)NCc2cccnc2)cc1` [Example R44, 4-[(2-Chlorobenzyl)(3-methylbut-2-en-1-yl)amino]-N-(pyridin-3-ylmethyl)benzamide], the IC50 under setting [1] was found to be 16.3 nM and the IC50 under setting [2] was more than 10000 nM.
Regarding `N#Cc1ccc(NC(=S)NCCCCCCOc2ccc(Cl)cc2)cc1` [Example R35, 1-[6-(4-Chlorophenoxy)hexyl]-3-(4-cyanophenyl)thiourea], the IC50 reads like this: under setting [1], 1530 nM; under setting [2], 2000 nM.
Regarding `O=C(NCc1cccnc1)Nc1ccc(NS(=O)(=O)c2cc(C(F)(F)F)ccc2-c2ccccc2)cc1` [Example R60, N-(4-{[(pyridin-3-ylmethyl)carbamoyl]amino}phenyl)-4-(trifluoromethyl)biphenyl-2-sulfonamide], the IC50 is 3.7 nM under setting [1] and more than 5000 nM under setting [2].
Regarding `O=C(NCc1cccnc1)Nc1ccc(NS(=O)(=O)c2ccccc2)cc1` [Example R32, N-(4-{[(Pyridin-3-ylmethyl)carbamoyl]amino}phenyl)benzene-sulfonamide], the IC50 is, setting by setting: under setting [1], 194 nM; under setting [2], more than 50000 nM.
Taken in the same sequence, the figures for `O=C(NCc1cccnc1)c1ccc(NNc2ccc(C(=O)NCc3cccnc3)cc2)cc1` [Example R7, 4,4′-Hydrazine-1,2-diylbis[N-(pyridin-3-ylmethyl)benzamide]] were 8.8 nM and 22000 nM.
In the case of `O=C(NCc1cccnc1)c1ccc(NC(=O)c2ccccc2)cc1` [Example R6, 4-[(Phenylcarbonyl)amino]-N-(pyridin-3-ylmethyl)benzamide], the IC50 under setting [1] turned out to be 1690 nM and the IC50 under setting [2] is more than 10000 nM.
In the case of `O=C(NCc1cccnc1)Nc1ccc(NS(=O)(=O)c2ccccc2-c2ccsc2)cc1` [Example R63, N-(4-{[(pyridin-3-ylmethyl)carbamoyl]amino}phenyl)-2-(thiophen-3-yl)benzenesulfonamide], the IC50 runs as follows: under setting [1], 1.6 nM; under setting [2], more than 10000 nM.
As for `O=C(NCc1cccnc1)c1ccc(NCc2ccccc2-c2cccc(C(F)(F)F)c2)cc1` [Example R29, N-(Pyridin-3-ylmethyl)-4-({[3′-(trifluoromethyl)biphenyl-2-yl]methyl}amino)benzamide], the IC50 by setting is: under setting [1], 10300 nM; under setting [2], 25000 nM.
On to `N#C/N=C(/NCc1ccc(NS(=O)(=O)c2ccccc2-c2ccccc2)cc1)Nc1ccncc1` [Example R59, N-(4-{[N″-cyano-N′-(pyridin-4-yl)carbamimidamido]methyl}phenyl) biphenyl-2-sulfonamide], for which the IC50 was 0.6 nM under setting [1] and more than 5000 nM under setting [2].
On to `O=C(NCc1cccnc1)c1ccc(NC(=S)Nc2ccccc2Br)cc1` [Example R13, 4-{[(2-Bromophenyl)carbamothioyl]amino}-N-(pyridin-3-ylmethyl)benzamide], for which the IC50 under setting [1] was found to be 1610 nM and the IC50 under setting [2] was more than 50000 nM.
In the case of `N#C/N=C(/NCCCCCCOc1ccc(Cl)cc1)Nc1ccncc1` [Example R5, 1-[6-(4-Chlorophenoxy)hexyl]-2-cyano-3-pyridin-4-ylguanidine], the IC50 by setting is: under setting [1], 1.6 nM; under setting [2], more than 10000 nM.
Consider `O=C(NCc1cccnc1)Nc1ccc(NS(=O)(=O)c2cc(C(F)(F)F)ccc2F)cc1` [Example R72, 2-fluoro-N-(4-{[(pyridin-3-ylmethyl)carbamoyl]amino}phenyl)-5-(trifluoromethyl)benzenesulfonamide], for which the IC50 reads like this: under setting [1], 15 nM; under setting [2], more than 5000 nM.
As for `C#CCN(Cc1cc2c(=O)n(C)c(CN3CCN(C)CC3)nc2cc1Cl)c1ccc(C(=O)NCc2cccnc2)cc1` [Example R1], the IC50 is, setting by setting: under setting [1], 0.7 nM; under setting [2], more than 10000 nM.
With `O=C(NCc1cccnc1)Nc1ccc(NS(=O)(=O)c2ccc3ccccc3c2)cc1` [Example R46, N-(4-{[(Pyridin-3-ylmethyl)carbamoyl]amino}phenyl) naphthalene-2-sulfonamide], the IC50 runs as follows: under setting [1], 64.8 nM; under setting [2], more than 10000 nM.
Regarding `CN(C)c1cccc2c(S(=O)(=O)Nc3ccc(NC(=O)NCc4cccnc4)cc3)cccc12` [Example R45, 5-(Dimethylamino)-N-(4-{[(pyridin-3-ylmethyl)carbamoyl]amino}phenyl) naphthalene-1-sulfonamide], the IC50 was 4.8 nM under setting [1] and more than 10000 nM under setting [2].
With `O=C(NCc1cccnc1)Nc1ccc(COc2ccccc2-c2cccc(F)c2)cc1` [Example R82, 1-(4-{[(3′-Fluorobiphenyl-2-yl)oxy]methyl}phenyl)-3-(pyridin-3-ylmethyl)urea], the IC50 was 1.9 nM under setting [1] and more than 5000 nM under setting [2].
On to `O=C(NCc1cccnc1)Nc1ccc(NS(=O)(=O)c2ccccc2-c2ccccc2)cc1` [Example R49, N-(4-{[(Pyridin-3-ylmethyl)carbamoyl]amino}phenyl)biphenyl-2-sulfonamide], for which the IC50 is 4.9 nM under setting [1] and more than 10000 nM under setting [2].
